The record followed here is publication PMC5765548 (Journal of medicinal chemistry, 2017).

Experiment [1] addresses T1, ALDH1A1 (Homo sapiens, UniProt P00352).
T1 sequence (P00352 1-501): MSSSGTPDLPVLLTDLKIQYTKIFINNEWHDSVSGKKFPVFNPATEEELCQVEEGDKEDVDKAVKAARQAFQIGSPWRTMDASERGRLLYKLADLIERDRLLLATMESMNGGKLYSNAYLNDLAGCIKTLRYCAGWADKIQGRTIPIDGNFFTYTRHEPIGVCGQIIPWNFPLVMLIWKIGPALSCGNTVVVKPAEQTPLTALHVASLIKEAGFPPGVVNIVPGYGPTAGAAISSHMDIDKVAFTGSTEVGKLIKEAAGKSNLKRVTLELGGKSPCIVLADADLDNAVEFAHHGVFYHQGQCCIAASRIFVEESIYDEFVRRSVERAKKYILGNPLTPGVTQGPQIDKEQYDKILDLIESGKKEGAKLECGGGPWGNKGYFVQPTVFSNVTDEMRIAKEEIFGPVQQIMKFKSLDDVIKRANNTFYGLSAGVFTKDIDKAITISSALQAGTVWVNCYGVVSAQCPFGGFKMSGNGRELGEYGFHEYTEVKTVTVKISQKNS
The experiment is described as follows: ALDH1A1 dehydrogenase activity, NADH formation at 340 nm. In kind it is biochemical. The settings on record: read-out: IC50 ALDH1A1; 100 μM propionaldehyde, 200 μM NAD+, 1% DMSO, pH 7.5, 25 °C.

For experiment [2], the target named is T2, ALDH1L1 (rat) (Rattus norvegicus, UniProt P28037).
T2 sequence (P28037 1-902): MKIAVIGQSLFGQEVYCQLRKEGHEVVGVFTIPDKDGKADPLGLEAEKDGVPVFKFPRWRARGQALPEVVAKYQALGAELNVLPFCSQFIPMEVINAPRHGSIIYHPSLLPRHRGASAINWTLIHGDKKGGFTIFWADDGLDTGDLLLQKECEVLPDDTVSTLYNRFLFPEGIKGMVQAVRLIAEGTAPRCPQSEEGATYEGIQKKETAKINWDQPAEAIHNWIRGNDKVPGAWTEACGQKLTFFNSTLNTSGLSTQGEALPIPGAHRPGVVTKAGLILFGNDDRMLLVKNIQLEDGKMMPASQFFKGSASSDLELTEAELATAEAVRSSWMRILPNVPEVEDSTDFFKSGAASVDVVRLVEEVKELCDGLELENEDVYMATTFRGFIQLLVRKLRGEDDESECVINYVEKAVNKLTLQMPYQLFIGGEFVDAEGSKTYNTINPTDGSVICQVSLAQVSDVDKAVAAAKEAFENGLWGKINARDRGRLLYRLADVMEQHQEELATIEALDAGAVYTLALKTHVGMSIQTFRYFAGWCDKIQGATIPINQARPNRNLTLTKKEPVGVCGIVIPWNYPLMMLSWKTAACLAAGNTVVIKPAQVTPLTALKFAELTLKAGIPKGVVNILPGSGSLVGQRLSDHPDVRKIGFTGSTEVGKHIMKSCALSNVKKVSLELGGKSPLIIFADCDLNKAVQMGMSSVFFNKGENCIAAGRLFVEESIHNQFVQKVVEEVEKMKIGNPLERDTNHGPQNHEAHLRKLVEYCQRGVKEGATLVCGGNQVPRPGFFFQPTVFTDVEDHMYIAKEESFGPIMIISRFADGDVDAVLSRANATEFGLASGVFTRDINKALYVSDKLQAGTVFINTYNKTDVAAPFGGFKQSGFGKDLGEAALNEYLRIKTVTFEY
Put plainly: ALDH1L1 dehydrogenase activity, NADPH formation at 340 nm. In kind it is biochemical. To be noted: read-out: IC50 ALDH1L1 (rat); 4 mM propionaldehyde, 500 μM NADP+.

Experiment [3] deals with T3, ALDH1A2 (Homo sapiens, UniProt O94788).
T3 sequence (O94788 1-518): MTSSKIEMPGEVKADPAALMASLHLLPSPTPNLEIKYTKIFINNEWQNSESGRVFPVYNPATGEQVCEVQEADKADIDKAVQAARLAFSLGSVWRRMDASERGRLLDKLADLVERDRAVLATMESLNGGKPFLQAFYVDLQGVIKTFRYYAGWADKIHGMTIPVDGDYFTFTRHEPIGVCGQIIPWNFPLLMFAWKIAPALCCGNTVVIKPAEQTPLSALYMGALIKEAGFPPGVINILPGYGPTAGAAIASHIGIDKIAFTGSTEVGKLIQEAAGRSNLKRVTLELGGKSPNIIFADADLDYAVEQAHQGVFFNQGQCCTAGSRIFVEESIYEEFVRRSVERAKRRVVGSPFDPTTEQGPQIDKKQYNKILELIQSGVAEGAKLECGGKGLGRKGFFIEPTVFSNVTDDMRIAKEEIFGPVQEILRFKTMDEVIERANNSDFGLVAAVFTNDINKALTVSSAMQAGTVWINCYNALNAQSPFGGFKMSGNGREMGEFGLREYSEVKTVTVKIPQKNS
To be noted: read-out: IC50 ALDH1A2; 100 μM propionaldehyde, 200 μM NAD+, 1% DMSO, pH 7.5, 25 °C.

Experiment [4] concerns the target T4, ALDH2 (Homo sapiens, UniProt P05091).
T4 sequence (P05091 18-517): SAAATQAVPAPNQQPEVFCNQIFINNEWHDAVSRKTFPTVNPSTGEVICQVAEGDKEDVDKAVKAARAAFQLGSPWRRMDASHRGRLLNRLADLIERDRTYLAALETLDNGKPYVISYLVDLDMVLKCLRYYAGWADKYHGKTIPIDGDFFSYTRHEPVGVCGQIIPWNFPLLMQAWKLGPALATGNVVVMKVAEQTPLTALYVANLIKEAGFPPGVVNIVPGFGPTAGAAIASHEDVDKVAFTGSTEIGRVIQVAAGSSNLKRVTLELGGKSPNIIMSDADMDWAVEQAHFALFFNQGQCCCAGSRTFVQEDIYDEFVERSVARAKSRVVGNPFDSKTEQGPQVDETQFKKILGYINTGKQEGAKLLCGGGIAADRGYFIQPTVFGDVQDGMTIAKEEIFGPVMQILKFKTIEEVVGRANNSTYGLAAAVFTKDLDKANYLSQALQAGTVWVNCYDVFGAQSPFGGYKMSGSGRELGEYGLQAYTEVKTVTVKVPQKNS
To be noted: 1 mM propionaldehyde.

What is called IC50 is the point on the concentration scale where inhibition reaches its midpoint. For `COC(=O)C(C)Oc1ccc2c(C)cc(=O)oc2c1` (stereo not shown) [Compound 4], the IC50 in experiment [1], in experiment [2] and in experiment [3] was more than 100 µM in each case. The “Mode of inhibition of ALDH2 versus varied NAD+” value in experiment [4] is “competitive”.
